Values after ≈ are worked out from the molar mass of the structure shown. Where two headings read alike, the source gives them in different places.

The subject of series [1] is HCT116 MTAP-deleted cell lines. Description: Cell viability assay (CellTiter-Glo, 7 days), HCT116 MTAP-deleted. It counts as cell-based. The conditions noted are these: for Selectivity: HCT116 WT CC50 versus HCT116 MTAP^del CC50; for plasma-adjusted CC50 (paCC50): paCC50 = CC50-HCT116-MTAP^del * (% free CCM/% free human plasma); for CC50: Homo sapiens, HCT116 MTAP-deleted. Summed up: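 Luminescent ATP readout (CellTiter-Glo) after 7 days of continuous compound exposure gives the CC50 value. Cells were plated onto pre-dispensed DMSO dilution series of the PRMT5 inhibitors and kept at 37 °C in 5% CO2.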

Series [2] can be described thus: Cell viability assay (CellTiter-Glo, 7 days), HCT116 WT. The class given is cell-based. The note with it: human, HCT116 WT cells, 7 days of treatment, CTG. The procedure: Control compounds were analyzed in parallel each time for quality control. In Brief, on Day -1, a serial dilution of stock compounds in DMSO was performed using BioMek liquid handlers and dispensed using Echo acoustic dispenser into 384 well plates. Both tool compounds and sample compounds were spotted in the same plate for a dose response of PRMT5 inhibitors. Compound plates were stored as frozen until the cells were ready for seeding. […] After equilibrating the plate in room temperature, the cells were incubated for 7 days inside the sealed incubator set at 37° C. with 90% humidity and 5% CO2. On Day 7, the viability of cells was measured using a CTG assay kit (CellTitre-Glo;Promega cat no. G7573). Shortly, 40 μl per well of luminescent cell viability assay reagent were dispensed using EL460 liquid dispenser 5 μl cassette. CTG luminescence signal was measured using an EnVision plate reader (PerkinElmer) in accordance with manufacturer's instruction. […] Selectivity with * is artificially high due to limited solubility of the compound hampering accurate measurement of WT CC50.
In general terms: ATP-based viability assays read luminescence as a measure of living cells.

Series [3] can be described thus: PBS solubility (kinetic solubility from DMSO stocks). The class given is physicochemical. The note with it: 22 °C, aqueous buffer, kinetic from dmso stock; 1x PBS pH 7.4, 1.0% DMSO, 24-hour incubation at ambient temperature. The procedure:
Buffer Preparation: 1×PBS, 7.4: Phosphate Buffered Saline solution 10×, PBS (Fisher Bioreagent, part number BP399-500) 50 mL was added to approximately 450 mL HPLC grade H2O. The volume of the solution was then adjusted to 500 mL for a total dilution factor of 1:10 and a final PBS concentration of 1×. The pH of the final solution was measured and found to be 7.4.
The final DMSO Concentration is 1.0% and maximum theoretical compound concentration is 100 μM (assuming stock concentration of 10 mM). The filter plate was sealed. Following 24-hour incubation at ambient temperature (20.8-24.0° C.), the samples were vacuum filtered, and the filtrates were collected in a 96 well polypropylene plate for analysis. The collection plate was sealed for analysis. Filtrates were injected into the nitrogen detector for quantification on Analiza's Automated Discovery Workstation. The results are reported here in both μM and μg/mL.
Calculation of Results: The equimolar nitrogen response of the detector is calibrated using standards which span the dynamic range of the instrument from 0.08 to 4500 μg/ml nitrogen. The filtrates were quantified with respect to this calibration curve. The calculated solubility values are corrected for background nitrogen present in the DMSO, and the media used to prepare the samples. All reported values for compounds containing adjacent nitrogen atoms in a ring structure should be increased by ˜25%. […] The solubility results presented assume that the samples were free of nitrogen containing impurities and are stable under the assay conditions.

For series [4], the system named is Symmetric Di-methyl Arginine (SDMA) signal (PRMT5 inhibition) in HCT116 MTAP-deleted cells. Description: Symmetric di-methyl arginine image-based high content screen assay (SDMA assay), HCT116 MTAP-deleted. It counts as cell-based. The conditions noted are these: for EC50 selectivity: HCT116 WT vs HCT116 MTAP-deleted; for EC50: Homo sapiens, HCT-116, HCT116 MTAP-deleted, class symbols. Summed up:
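HCT116 WT and MTAP-deleted cells (800/well, RPMI 1640 + 10% FBS) treated with compound 3 days at 37 °C; formalin-fixed, stained with anti-SDMA antibody/Alexa 488 plus DAPI. Mean SDMA intensity per DAPI-defined cell imaged; EC50 from 4-parameter logistic fit.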

The mark [5] stands for this setting: HCT-116, 168 h, 7 days of treatment, CTG, read-out: CC50-HCT116-MTAP^del.
[6] abbreviates: HCT-116, cell viability assay, class symbols, read-out: CC50.

Broadly, the CC50 is the concentration that lowers cell viability or growth by half. One may read the solubility as the dissolved amount per volume that the medium holds. High values mean a readily soluble substance, low ones a poorly soluble substance. Consider `Nc1nc2cnc(C(=O)N3CC[C@H]4C[C@@H]3c3c(F)cc(OC(F)(F)F)cc3O4)cc2n2cncc12` (single isomer, unassigned) [Ff-692], for which the Selectivity in series [1] stood at 69. In series [1] (HCT-116), this molecule displayed a plasma-adjusted CC50 (paCC50) of 139 nM. In series [1] (setting [5]), the cytotoxic concentration (CC50) amounted to 14 nM. The molecule further registered a half-maximal cytotoxic concentration (CC50) at 7 days in series [2] of 969 nM. The same molecule registered a solubility at 24 h in series [3] of 18.6 µM (≈ 9.08 µg/mL).

The term EC50 denotes the midpoint of the concentration-response curve. The low end stands for greater potency, the high end for weaker potency. Molecule `Cc1cc2nc(N)c3cncn3c2cc1C(=O)N1CCC[C@@H]2Oc3cc(C(F)(F)F)ccc3[C@@H]21` [Ff-368, (4-amino-7-methylimidazo[1,5-a]quinoxalin-8-yl)((4aS,9bS)-7-(trifluoromethyl)-3,4,4a,9b-tetrahydrobenzofuro[3,2-b]pyridin-1(2H)-yl)methanone] had a Selectivity in series [1] of 59. In series [1] (setting [5]), the CC50 turned out to be 3 nM. The CC50 in series [1] (setting [6]) is less than 100 nM. Further, the CC50 at 7 days in series [2] worked out at 178 nM. In series [4], the EC50 selectivity turned out to be 47 and the EC50 was no more than 1 nM.

Turning to `Cc1ncn2c1c(N)nc1cc(F)c(C(=O)N3CCCC[C@@H]3c3ccc(S(F)(F)(F)(F)F)cc3)cc12` [Ff-402, (R)-(4-amino-7-fluoro-3-methylimidazo[1,5-a]quinoxalin-8-yl)(2-(4-(pentafluoro-16-sulfaneyl)phenyl)piperidin-1-yl)methanone], the Selectivity in series [1] is recorded as 84. The plasma-adjusted CC50 (paCC50) in series [1] (HCT-116) came to 40 nM. In addition, the CC50 in series [1] (setting [5]) was 30 nM; in series [1] (setting [6]), less than 100 nM. Further, the CC50 at 7 days in series [2] stood at 2520 nM. The concentration in solution in series [3] (solubility at 24 h) was 18.3 µM (≈ 9.69 µg/mL).

Regarding `Nc1nc2cc(F)c(C(=O)N3CCC[C@@H]4Oc5ccc(C(F)(F)F)cc5[C@@H]43)cc2n2cncc12` [Ff-620, (4-amino-7-fluoroimidazo[1,5-a]quinoxalin-8-yl)((4aS,9bS)-8-(trifluoromethyl)-3,4,4a,9b-tetrahydrobenzofuro[3,2-b]pyridin-1(2H)-yl)methanone], in series [1], the Selectivity was found to be 50. Besides, the results for the CC50 in series [1] (setting [5]) and in series [1] (setting [6]) were 31 nM and less than 100 nM, respectively. Further, in series [2], it took 1550 nM to reach half-maximal cytotoxicity (CC50 at 7 days). The molecule also had a solubility at 24 h in series [3] of 1.2 µM (≈ 0.566 µg/mL).

The molecule `Cc1ncn2c1c(N)nc1cnc(C(=O)N3CC[C@H]4C[C@@H]3c3ccc(OC(F)(F)F)cc3O4)cc12` [Ff-632, (4-amino-3-methylimidazo[1,5-a]pyrido[3,4-e]pyrazin-8-yl)((2S,6R)-9-(trifluoromethoxy)-3,4-dihydro-2H-2,6-methanobenzo[b][1,5]oxazocin-5(6H)-yl)methanone] gave a Selectivity in series [1] of 93. This molecule also yielded a plasma-adjusted CC50 (paCC50) in series [1] (HCT-116) of 270 nM. Moreover, the CC50 is 18 nM in series [1] (setting [5]) and less than 100 nM in series [1] (setting [6]). In series [2], this molecule gave a CC50 at 7 days of 1680 nM.

The molecule `Cc1ncn2c1c(N)nc1cnc(C(=O)N3CC[C@H]4C[C@@H]3c3ccc(C(F)(F)F)c(F)c3O4)cc12` [Ff-633, (4-amino-3-methylimidazo[1,5-a]pyrido[3,4-e]pyrazin-8-yl)((2S,6R)-10-fluoro-9-(trifluoromethyl)-3,4-dihydro-2H-2,6-methanobenzo[b][1,5]oxazocin-5(6H)-yl)methanone] gave a Selectivity in series [1] of 104. Moreover, the CC50 in series [1] (setting [5]) was 20 nM. The CC50 in series [1] (setting [6]) was less than 100 nM. The molecule further came in with a CC50 at 7 days in series [2] of 2080 nM. Moreover, in series [4], the EC50 selectivity is recorded as 82 and the EC50 lay within 1 to 5 nM.

On to `CN(C(=O)c1cc2c(cc1Br)nc(N)c1cncn12)[C@@H]1COc2cc(C(F)(F)F)ccc21` [Fg-48, (S)-4-amino-7-bromo-N-methyl-N-(6-(trifluoromethyl)-2,3-dihydrobenzofuran-3-yl)imidazo[1,5-a]quinoxaline-8-carboxamide], for which, in series [1] (setting [6]), the CC50 was less than 100 nM. Besides, in series [4], the EC50 selectivity was determined as 94 and the EC50 was no more than 1 nM.

For the molecule `C#Cc1cc2nc(N)c3cncn3c2cc1C(=O)N(C)[C@@H]1COc2cc(C(F)(F)F)ccc21` [Fg-49, (S)-4-amino-7-ethynyl-N-methyl-N-(6-(trifluoromethyl)-2,3-dihydrobenzofuran-3-yl)imidazo[1,5-a]quinoxaline-8-carboxamide], the CC50 in series [1] (setting [6]) was less than 100 nM. In series [4], the EC50 selectivity was 70 and the EC50 was no more than 1 nM.

Consider `Nc1nc2cc(Br)c(C(=O)N3CCC[C@@H]4Oc5cc(C(F)(F)F)ccc5[C@@H]43)cc2n2cncc12` [Fg-50, (4-amino-7-bromoimidazo[1,5-a]quinoxalin-8-yl)((4aS,9bS)-7-(trifluoromethyl)-3,4,4a,9b-tetrahydrobenzofuro[3,2-b]pyridin-1(2H)-yl)methanone], for which, in series [1] (setting [6]), the CC50 is less than 100 nM. For the same molecule, in series [4], the EC50 selectivity stood at 47 and the EC50 was no more than 1 nM.

As for `C=Cc1cc2nc(N)c3cncn3c2cc1C(=O)N(C)[C@@H]1COc2cc(C(F)(F)F)ccc21` [Fg-51, (S)-4-amino-N-methyl-N-(6-(trifluoromethyl)-2,3-dihydrobenzofuran-3-yl)-7-vinylimidazo[1,5-a]quinoxaline-8-carboxamide], the CC50 in series [1] (setting [6]) is less than 100 nM. In series [4], this molecule gave an EC50 selectivity of 319 and an EC50 of 1 to 5 nM.

With `C[C@H]1C[C@@H]2Oc3cc(OC(F)(F)F)ccc3[C@@H]2N(C(=O)c2cc3c(cn2)nc(N)c2cncn23)C1` [Fg-54, (4-aminoimidazo[1,5-a]pyrido[3,4-e]pyrazin-8-yl)((3S,4aS,9bS)-3-methyl-7-(trifluoromethoxy)-3,4,4a,9b-tetrahydrobenzofuro[3,2-b]pyridin-1(2H)-yl)methanone], the CC50 in series [1] (setting [6]) is less than 100 nM. In series [4], this molecule gave an EC50 selectivity of 69 and a concentration giving a half-maximal response (EC50) of no more than 1 nM.

Turning to `[2H]C1([2H])CC[C@@H]2Oc3cc(OC(F)(F)F)ccc3[C@@H]2N1C(=O)c1cc2c(cn1)nc(N)c1cncn12` [Fg-59, (4-aminoimidazo[1,5-a]pyrido[3,4-e]pyrazin-8-yl)((4aS,9bS)-7-(trifluoromethoxy)-3,4,4a,9b-tetrahydrobenzofuro[3,2-b]pyridin-1(2H)-yl-2,2-d2)methanone], the CC50 in series [1] (setting [6]) is less than 100 nM. In series [4], the EC50 selectivity is 208 and the EC50 was no more than 1 nM.

On to `Nc1nc2cc(F)c(C(=O)N3CCC[C@@H]4Oc5cc(OC(F)(F)F)cc(F)c5[C@@H]43)cc2n2cncc12` [Fg-68, (4-amino-7-fluoroimidazo[1,5-a]quinoxalin-8-yl)((4aS,9bS)-9-fluoro-7-(trifluoromethoxy)-3,4,4a,9b-tetrahydrobenzofuro[3,2-b]pyridin-1(2H)-yl)methanone], for which, in series [1], the Selectivity is recorded as 89. In addition, in series [1] (HCT-116), the plasma-adjusted CC50 (paCC50) was determined as 130 nM. Further, in series [1] (setting [5]), the 50% cytotoxic concentration (CC50) came out at 8 nM. Moreover, the CC50 at 7 days in series [2] was 708 nM. The molecule further returned a solubility at 24 h in series [3] of less than 1 µM.

The record behind these values is patent publication US12448388B2, “PRMT5 inhibitors and uses thereof” (Gilead Sciences, Inc., priority 2023, dated 2025).
